# Measurements from ChEMBL document CHEMBL3885861, “Open TG-GATES”.
# Organism: Rattus norvegicus
# Assay: Open TG-GATES - Regimen: Single
# Format: toxicity, organism-based, Sprague-Dawley
# Parameters: regimen Single, gender Male, age 6 weeks
# Settings: in vivo, po, 100 mg/kg, route gavage, dose level Low; for APTT / Bas / Eos / Fbg / Hb / Ht / Lym / MCH / MCHC / MCV / Mono / Neu / PT / Plat / RBC / Ret / WBC: tissue Blood; for KIDNEY_L / KIDNEY_R / KIDNEY_TOTAL: tissue Kidney; for LIVER: tissue Liver; for A/G / ALP / ALT / AST / BUN / CRE / Ca / Cl / DBIL / GLC / IP / K / LDH / Na / PL / RALB / TBIL / TC / TG / TP / gamma-GTP: tissue Plasma
smiles,measurement,setting,value
CCOC(=O)CCC(=O)O[C@H]1[C@H](O[C@@H]2[C@@H](C)[C@H](O[C@H]3C[C@@](C)(OC)[C@@H](O)[C@H](C)O3)[C@@H](C)C(=O)O[C@H](CC)[C@@](C)(O)[C@H](O)[C@@H](C)C(=O)[C@H](C)C[C@@]2(C)O)O[C@H](C)C[C@@H]1N(C)C [ERYTHROMYCIN ETHYLSUCCINATE],TERMINAL_BW,3 h,214.5 g
same,APTT,3 h,22.9 s
same,Bas,3 h,0%
same,Eos,3 h,0.8%
same,Fbg,3 h,311.4 mg/dL
same,Hb,3 h,13.2 g/dL
same,Ht,3 h,39.7%
same,Lym,3 h,77.4%
same,MCH,3 h,21.4 pg
same,MCHC,3 h,33.2%
same,MCV,3 h,64.4 fL
same,Mono,3 h,2.6%
same,Neu,3 h,18.6%
same,PT,3 h,16.2 s
same,Plat,3 h,111.6 x10_4/uL
same,RBC,3 h,617.6 x10_4/ul
same,Ret,3 h,8.2%
same,WBC,3 h,78.3 x10_2/uL
same,KIDNEY_L,3 h,0.9 g
same,KIDNEY_R,3 h,1 g
same,KIDNEY_TOTAL,3 h,1.9 g
same,LIVER,3 h,9.9 g
same,A/G,3 h,1.2
same,ALP,3 h,1930.6 IU/L
same,ALT,3 h,47.6 IU/L
same,AST,3 h,78 IU/L
same,BUN,3 h,12.8 mg/dL
same,CRE,3 h,0.1 mg/dL
same,Ca,3 h,10.5 mg/dL
same,Cl,3 h,102.8 meq/L
same,DBIL,3 h,0.006 mg/dL
same,GLC,3 h,189.2 mg/dL
same,IP,3 h,9.1 mg/dL
same,K,3 h,3.8 meq/L
same,LDH,3 h,147.2 IU/L
same,Na,3 h,139.2 meq/L
same,PL,3 h,142.6 mg/dL
same,RALB,3 h,2.9 g/dL
same,TBIL,3 h,0.02 mg/dL
same,TC,3 h,73 mg/dL
same,TG,3 h,70.2 mg/dL
same,TP,3 h,5.5 g/dL
same,gamma-GTP,3 h,1 IU/L
same,TERMINAL_BW,6 h,213.8 g
same,APTT,6 h,22.8 s
same,Bas,6 h,0%
same,Eos,6 h,0.8%
same,Fbg,6 h,308 mg/dL
same,Hb,6 h,13.2 g/dL
same,Ht,6 h,39.8%
same,Lym,6 h,76.6%
same,MCH,6 h,20.9 pg
same,MCHC,6 h,33.1%
same,MCV,6 h,63.4 fL
same,Mono,6 h,2.6%
same,Neu,6 h,18.8%
same,PT,6 h,16 s
same,Plat,6 h,118.8 x10_4/uL
same,RBC,6 h,628 x10_4/ul
same,Ret,6 h,7.8%
same,WBC,6 h,108.5 x10_2/uL
same,KIDNEY_L,6 h,1 g
same,KIDNEY_R,6 h,1 g
same,KIDNEY_TOTAL,6 h,2 g
same,LIVER,6 h,9.2 g
same,A/G,6 h,1.1
same,ALP,6 h,1420.4 IU/L
same,ALT,6 h,40.2 IU/L
same,AST,6 h,72 IU/L
same,BUN,6 h,12 mg/dL
same,CRE,6 h,0.2 mg/dL
same,Ca,6 h,10.5 mg/dL
same,Cl,6 h,104 meq/L
same,DBIL,6 h,0 mg/dL
same,GLC,6 h,187.6 mg/dL
same,IP,6 h,9.5 mg/dL
same,K,6 h,4.2 meq/L
same,LDH,6 h,182 IU/L
same,Na,6 h,138 meq/L
same,PL,6 h,132.2 mg/dL
same,RALB,6 h,2.8 g/dL
same,TBIL,6 h,0.02 mg/dL
same,TC,6 h,69.8 mg/dL
same,TG,6 h,63.4 mg/dL
same,TP,6 h,5.3 g/dL
same,gamma-GTP,6 h,1.2 IU/L
same,TERMINAL_BW,9 h,216.4 g
same,APTT,9 h,23.3 s
same,Bas,9 h,0%
same,Eos,9 h,1%
same,Fbg,9 h,315 mg/dL
same,Hb,9 h,13.3 g/dL
same,Ht,9 h,40.4%
same,Lym,9 h,80.4%
same,MCH,9 h,21.5 pg
same,MCHC,9 h,33%
same,MCV,9 h,65 fL
same,Mono,9 h,2%
same,Neu,9 h,15.8%
same,PT,9 h,15.6 s
same,Plat,9 h,121.2 x10_4/uL
same,RBC,9 h,622 x10_4/ul
same,Ret,9 h,8%
same,WBC,9 h,73.2 x10_2/uL
same,KIDNEY_L,9 h,1 g
same,KIDNEY_R,9 h,1.1 g
same,KIDNEY_TOTAL,9 h,2.1 g
same,LIVER,9 h,9.2 g
same,A/G,9 h,1.2
same,ALP,9 h,1398.8 IU/L
same,ALT,9 h,32.4 IU/L
same,AST,9 h,64 IU/L
same,BUN,9 h,12.4 mg/dL
same,CRE,9 h,0.1 mg/dL
same,Ca,9 h,10.6 mg/dL
same,Cl,9 h,105.4 meq/L
same,DBIL,9 h,0 mg/dL
same,GLC,9 h,188.8 mg/dL
same,IP,9 h,9.5 mg/dL
same,K,9 h,4.2 meq/L
same,LDH,9 h,145.6 IU/L
same,Na,9 h,138.6 meq/L
same,PL,9 h,136 mg/dL
same,RALB,9 h,3 g/dL
same,TBIL,9 h,0.012 mg/dL
same,TC,9 h,78.2 mg/dL
same,TG,9 h,87.4 mg/dL
same,TP,9 h,5.5 g/dL
same,gamma-GTP,9 h,1.4 IU/L
same,TERMINAL_BW,24 h,222.7 g
same,APTT,24 h,21.4 s
same,Bas,24 h,0%
same,Eos,24 h,0.8%
same,Fbg,24 h,326.2 mg/dL
same,Hb,24 h,13.8 g/dL
same,Ht,24 h,41.6%
same,Lym,24 h,86.4%
same,MCH,24 h,20.6 pg
same,MCHC,24 h,33.2%
same,MCV,24 h,62.2 fL
same,Mono,24 h,3%
same,Neu,24 h,8.2%
same,PT,24 h,16 s
same,Plat,24 h,122.9 x10_4/uL
same,RBC,24 h,670 x10_4/ul
same,Ret,24 h,6.7%
same,WBC,24 h,102.3 x10_2/uL
same,KIDNEY_L,24 h,0.9 g
same,KIDNEY_R,24 h,1 g
same,KIDNEY_TOTAL,24 h,1.9 g
same,LIVER,24 h,9.5 g
same,A/G,24 h,1.3
same,ALP,24 h,1407.8 IU/L
same,ALT,24 h,43.4 IU/L
same,AST,24 h,70.4 IU/L
same,BUN,24 h,14 mg/dL
same,CRE,24 h,0.1 mg/dL
same,Ca,24 h,10.6 mg/dL
same,Cl,24 h,106.6 meq/L
same,DBIL,24 h,0.002 mg/dL
same,GLC,24 h,200.6 mg/dL
same,IP,24 h,7.7 mg/dL
same,K,24 h,4.1 meq/L
same,LDH,24 h,183.2 IU/L
same,Na,24 h,142.4 meq/L
same,PL,24 h,140.4 mg/dL
same,RALB,24 h,3.1 g/dL
same,TBIL,24 h,0.03 mg/dL
same,TC,24 h,83 mg/dL
same,TG,24 h,71.6 mg/dL
same,TP,24 h,5.5 g/dL
same,gamma-GTP,24 h,1.4 IU/L
